Measured values taken from the supplement of paper PMC10307832.

Tests used:
Test in all cases: relative viability (nuclei count vs DMSO), 5 days (fraction); higher = more cells survive
ALW-II-49-7 + Pemetrexed = compound: Cc1ccc(C(=O)Nc2cccc(C(F)(F)F)c2)cc1Nc1cncc(C(N)=O)c1 [ALW-II-49-7] + Nc1nc2[nH]cc(CCc3ccc(C(=O)N[C@@H](CCC(=O)O)C(=O)O)cc3)c2c(=O)[nH]1 [Pemetrexed] (partner 0.2 µM)
Summary of the method: (§1)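 Lung cancer cell lines were seeded in 1536-well plates and dosed by pin tool the next day, with either a single drug or a fixed anchor-drug dose combined with five library-drug doses (not always all listed) spaced in √10 steps. Five days later, one step fixed the cells and stained their nuclei (final 0.05% Triton X-100, 1% formaldehyde, 1 ug/ml Hoechst), and nuclei were counted on 4× images. Relative viability is the nuclei count in treated wells divided by the count in vehicle wells, and each value is the median of duplicate plates.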

Dasatinib + Luminespib = compound: Cc1nc(Nc2ncc(C(=O)Nc3c(C)cccc3Cl)s2)cc(N2CCN(CCO)CC2)n1 [Dasatinib] + CCNC(=O)c1noc(-c2cc(C(C)C)c(O)cc2O)c1-c1ccc(CN2CCOCC2)cc1 [Luminespib] (partner 0.01 µM)
Summary of the method: as §1

ALW-II-49-7 + OSI-027 = compound: Cc1ccc(C(=O)Nc2cccc(C(F)(F)F)c2)cc1Nc1cncc(C(N)=O)c1 [ALW-II-49-7] + COc1cccc2cc(-c3nc([C@H]4CC[C@H](C(=O)O)CC4)n4ncnc(N)c34)[nH]c12 [OSI-027] (partner 0.5 µM)
Summary of the method: as §1

ALW-II-49-7 + Dasatinib = compound: Cc1ccc(C(=O)Nc2cccc(C(F)(F)F)c2)cc1Nc1cncc(C(N)=O)c1 [ALW-II-49-7] + Cc1nc(Nc2ncc(C(=O)Nc3c(C)cccc3Cl)s2)cc(N2CCN(CCO)CC2)n1 [Dasatinib] (partner 0.075 µM)
Summary of the method: as §1

UMC-11
relative viability (ALW-II-49-7 + Pemetrexed; first compound 0.08 µM): 0.856 | relative viability (ALW-II-49-7 + Pemetrexed; first compound 0.253 µM): 0.79 | relative viability (ALW-II-49-7 + Pemetrexed; first compound 0.8 µM): 0.76 | relative viability (ALW-II-49-7 + Pemetrexed; first compound 2.53 µM): 0.803 | relative viability (ALW-II-49-7 + Pemetrexed; first compound 8 µM): 0.705 | relative viability (Dasatinib + Luminespib; first compound 0.005 µM): 0.874 | relative viability (Dasatinib + Luminespib; first compound 0.01581 µM): 0.78 | relative viability (Dasatinib + Luminespib; first compound 0.05 µM): 0.607 | relative viability (Dasatinib + Luminespib; first compound 0.1581 µM): 0.316 | relative viability (Dasatinib + Luminespib; first compound 0.5 µM): 0.328 | relative viability (ALW-II-49-7 + OSI-027; first compound 0.08 µM): 0.499 | relative viability (ALW-II-49-7 + OSI-027; first compound 0.253 µM): 0.457 | relative viability (ALW-II-49-7 + OSI-027; first compound 0.8 µM): 0.487 | relative viability (ALW-II-49-7 + OSI-027; first compound 2.53 µM): 0.434 | relative viability (ALW-II-49-7 + OSI-027; first compound 8 µM): 0.485 | relative viability (ALW-II-49-7 + Dasatinib; first compound 0.08 µM): 0.428 | relative viability (ALW-II-49-7 + Dasatinib; first compound 0.253 µM): 0.453 | relative viability (ALW-II-49-7 + Dasatinib; first compound 0.8 µM): 0.473 | relative viability (ALW-II-49-7 + Dasatinib; first compound 2.53 µM): 0.456 | relative viability (ALW-II-49-7 + Dasatinib; first compound 8 µM): 0.519
